Laboratory results published in the supplement of paper PMC6965134.
± gives the standard deviation of the averaged measurements. One block for each compound: values may come before it.

Experiment: TIMS collisional cross section (CCS, N2) of the lipid ion; higher = larger ion cross section
Conditions: ionization mode: negative, one isomer drawn
Procedure: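 Lipid extracts of human plasma (NIST SRM 1950), mouse liver or HeLa cells were separated by nanoflow C18 LC (30 min gradient) and analysed by TIMS-PASEF on a timsTOF Pro. Ion mobility was calibrated with the Agilent tuning mix (negative mode ions) and converted to collisional cross sections (Mason–Schamp, N2).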

[1] = sample type: Mouse Liver, ion (formula + adduct): [C42H76NO8P+AcO] 1-
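Further: lipids from MTBE extraction, five replicate injections per sample, 100 ms TIMS ramp spanning 0.6–1.95 Vs/cm², lipid identity assigned from PASEF MS/MS spectra.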

Compound: CC/C=C\C/C=C\C/C=C\CCCCCCCC(=O)O[C@H](COC(=O)CCCCCCCCCCCCC)COP(=O)([O-])OCC[N+](C)(C)C [PC 14:0_18:3]
TIMS collisional cross section (sample type: Mouse Liver, ion (formula + adduct): [C40H74NO8P+HCOO] 1-): 284 Å²

Compound: CCCCC/C=C\C/C=C\C/C=C\C/C=C\CCCC(=O)O[C@H](COC(=O)CCCCCCCCCCCCC)COP(=O)([O-])OCC[N+](C)(C)C [PC 14:0_20:4@]
TIMS collisional cross section [1]: 288.1 Å²

Compound: CCCCC/C=C\C/C=C\C/C=C\C/C=C\CCCC(=O)O[C@H](COC(=O)CCCCCCCCCCCCC)COP(=O)([O-])OCC[N+](C)(C)C [PC 14:0_20:4]
TIMS collisional cross section (sample type: Human plasma, ion (formula + adduct): [C42H76NO8P+HCOO] 1-): 288.2 Å²
TIMS collisional cross section [1]: 290.4 Å²

Compound: CCCC/C=C\CCCCCCCC(=O)OC[C@H](COP(=O)([O-])OCC[N+](C)(C)C)OC(=O)CCC/C=C\C/C=C\C/C=C\C/C=C\CCCCC [PC 14:1@_20:4]
TIMS collisional cross section (sample type: Human plasma, ion (formula + adduct): [C42H74NO8P-CH3] 1-): 268.8 Å²

Compound: CC/C=C\C/C=C\C/C=C\C/C=C\C/C=C\CCCC(=O)O[C@H](COC(=O)CCCCCCC/C=C\CCCC)COP(=O)([O-])OCC[N+](C)(C)C [PC 14:1@_20:5]
TIMS collisional cross section (sample type: Mouse Liver, ion (formula + adduct): [C42H72NO8P-H] 1-): 269.9 Å²

Compound: CCCCC/C=C\C/C=C\C/C=C\C/C=C\CCCC(=O)O[C@H](COC(=O)CCCCCCCCCCCCCC)COP(=O)([O-])OCC[N+](C)(C)C [PC 15:0@_20:4]
TIMS collisional cross section (sample type: Human plasma, ion (formula + adduct): [C43H78NO8P+OAcO] 1-): 295.5 Å²
TIMS collisional cross section (sample type: Mouse Liver, ion (formula + adduct): [C43H78NO8P-H] 1-): 285.5 ± 12 Å²

Compound: CC/C=C\C/C=C\C/C=C\C/C=C\C/C=C\C/C=C\CCC(=O)O[C@H](COC(=O)CCCCCCCCCCCCCC)COP(=O)([O-])OCC[N+](C)(C)C [PC 15:0@_22:6]
TIMS collisional cross section (sample type: Mouse Liver, ion (formula + adduct): [C45H78NO8P-H] 1-): 280.7 Å²

Compound: CCCCC/C=C\C/C=C\C/C=C\C/C=C\CCCC(=O)O[C@H](COC(=O)CCCCCCCCCCCCCC)COP(=O)([O-])OCC[N+](C)(C)C [PC 15:0_20:4]
TIMS collisional cross section (sample type: Human plasma, ion (formula + adduct): [C43H78NO8P+HCOO] 1-): 291 Å²

Compound: CC/C=C\C/C=C\C/C=C\C/C=C\C/C=C\C/C=C\CCC(=O)O[C@H](COC(=O)CCCCCCCCCCCCCC)COP(=O)([O-])OCC[N+](C)(C)C [PC 15:0_22:6]
TIMS collisional cross section (sample type: Human plasma, ion (formula + adduct): [C45H78NO8P+HCOO] 1-): 294.4 Å²
TIMS collisional cross section (sample type: Mouse Liver, ion (formula + adduct): [C45H78NO8P+HCOO] 1-): 294.4 Å²

Compound: CCCCC/C=C\C/C=C\C/C=C\C/C=C\CCCC(=O)O[C@H](COC(=O)CCCCCCC/C=C\CCCCC)COP(=O)([O-])OCC[N+](C)(C)C [PC 15:1@_20:4]
TIMS collisional cross section (sample type: Human plasma, ion (formula + adduct): [C43H76NO8P-H] 1-): 275 Å²
TIMS collisional cross section (sample type: Mouse Liver, ion (formula + adduct): [C43H76NO8P-H] 1-): 275.6 Å²

Compound: CC/C=C\C/C=C\C/C=C\C/C=C\CCCCC(=O)O[C@H](COC(=O)CCCCCCCCCCCCCCC)COP(=O)([O-])OCC[N+](C)(C)C [PC 16:0@_18:4]
TIMS collisional cross section (sample type: Mouse Liver, ion (formula + adduct): [C42H76NO8P+HCOO] 1-): 287.6 Å²

Compound: CCCCC/C=C\C/C=C\C/C=C\C/C=C\C/C=C\CCC(=O)O[C@H](COC(=O)CCCCCCCCCCCCCCC)COP(=O)([O-])OCC[N+](C)(C)C [PC 16:0@_22:5]
TIMS collisional cross section (sample type: Human plasma, ion (formula + adduct): [C46H82NO8P-CH3] 1-): 282.7 ± 0.42 Å²
TIMS collisional cross section (sample type: Mouse Liver, ion (formula + adduct): [C46H82NO8P-CH3] 1-): 282.4 Å²

Compound: CC/C=C\C/C=C\C/C=C\C/C=C\C/C=C\C/C=C\CCC(=O)O[C@H](COC(=O)CCCCCCCCCCCCCCC)COP(=O)([O-])OCC[N+](C)(C)C [PC 16:0@_22:6]
TIMS collisional cross section (sample type: Mouse Liver, ion (formula + adduct): [C46H80NO8P-CH3] 1-): 281.3 Å²

Compound: C=CC(=O)O[C@H](COC(=O)CCCCCCCCCCCCCCC)COP(=O)([O-])OCC[N+](C)(C)C [PC 16:0_3:1@]
TIMS collisional cross section (sample type: Human plasma, ion (formula + adduct): [C27H52NO8P+OAcO] 1-): 252.2 Å²
TIMS collisional cross section (sample type: Mouse Liver, ion (formula + adduct): [C27H52NO8P+AcO] 1-): 244.7 Å²

Compound: C=CC(=O)O[C@H](COC(=O)CCCCCCCCCCCCCCC)COP(=O)([O-])OCC[N+](C)(C)C [PC 16:0_3:1]
TIMS collisional cross section (sample type: Human plasma, ion (formula + adduct): [C27H52NO8P+AcO] 1-): 245.3 Å²
TIMS collisional cross section (sample type: Mouse Liver, ion (formula + adduct): [C27H52NO8P+OAcO] 1-): 252.2 Å²

Compound: C=CCCC(=O)O[C@H](COC(=O)CCCCCCCCCCCCCCC)COP(=O)([O-])OCC[N+](C)(C)C [PC 16:0_5:1@]
TIMS collisional cross section (sample type: Mouse Liver, ion (formula + adduct): [C29H56NO8P+HCOO] 1-): 247.5 Å²

Compound: C=CCCC(=O)O[C@H](COC(=O)CCCCCCCCCCCCCCC)COP(=O)([O-])OCC[N+](C)(C)C [PC 16:0_5:1]
TIMS collisional cross section (sample type: Mouse Liver, ion (formula + adduct): [C29H56NO8P+AcO] 1-): 252.1 Å²

Results, then the compound that gave them:

TIMS collisional cross section (sample type: Mouse Liver, ion (formula + adduct): [C40H78NO8P+HCOO] 1-): 286 Å²
Compound: CCCCCC/C=C\CCCCCCCCCC(=O)O[C@H](COC(=O)CCCCCCCCCCCCC)COP(=O)([O-])OCC[N+](C)(C)C [PC 14:0_18:1]

TIMS collisional cross section (sample type: Mouse Liver, ion (formula + adduct): [C38H74NO8P+Cl] 1-): 268.8 Å²
Compound: CCCC/C=C\CCCCCCCC(=O)OC[C@H](COP(=O)([O-])OCC[N+](C)(C)C)OC(=O)CCCCCCCCCCCCCCC [PC 14:1_16:0]

TIMS collisional cross section (sample type: Human plasma, ion (formula + adduct): [C38H72NO8P+HCOO] 1-): 278.6 Å²
Compound: CCCC/C=C\CCCCCCCC(=O)OC[C@H](COP(=O)([O-])OCC[N+](C)(C)C)OC(=O)CCCCCCC/C=C\CCCCCC [PC 14:1_16:1@]

TIMS collisional cross section (sample type: Mouse Liver, ion (formula + adduct): [C39H76NO8P+AcO] 1-): 285.4 Å²
Compound: CCCCCC/C=C\CCCCCCCC(=O)O[C@H](COC(=O)CCCCCCCCCCCCCC)COP(=O)([O-])OCC[N+](C)(C)C [PC 15:0@_16:1]

TIMS collisional cross section (sample type: Human plasma, ion (formula + adduct): [C41H76NO8P+HCOO] 1-): 287.1 Å²
Compound: CCCCC/C=C\C/C=C\C/C=C\CCCCC(=O)O[C@H](COC(=O)CCCCCCCCCCCCCC)COP(=O)([O-])OCC[N+](C)(C)C [PC 15:0@_18:3]

TIMS collisional cross section (sample type: Human plasma, ion (formula + adduct): [C39H78NO8P+HCOO] 1-): 284.9 Å²
TIMS collisional cross section (sample type: Human plasma, ion (formula + adduct): [C39H78NO8P+OAcO] 1-): 290.8 Å²
Compound: CCCCCCCCCCCCCCCC(=O)O[C@H](COC(=O)CCCCCCCCCCCCCC)COP(=O)([O-])OCC[N+](C)(C)C [PC 15:0_16:0@]

TIMS collisional cross section (sample type: Human plasma, ion (formula + adduct): [C39H78NO8P-H] 1-): 269.8 Å²
Compound: CCCCCCCCCCCCCCCC(=O)O[C@H](COC(=O)CCCCCCCCCCCCCC)COP(=O)([O-])OCC[N+](C)(C)C [PC 15:0_16:0]

TIMS collisional cross section (sample type: Human plasma, ion (formula + adduct): [C41H82NO8P+HCOO] 1-): 291.1 Å²
Compound: CCCCCCCCCCCCCCCCCC(=O)O[C@H](COC(=O)CCCCCCCCCCCCCC)COP(=O)([O-])OCC[N+](C)(C)C [PC 15:0_18:0@]

TIMS collisional cross section (sample type: Human plasma, ion (formula + adduct): [C41H80NO8P+HCOO] 1-): 288.8 Å²
Compound: CCCCCC/C=C\CCCCCCCCCC(=O)O[C@H](COC(=O)CCCCCCCCCCCCCC)COP(=O)([O-])OCC[N+](C)(C)C [PC 15:0_18:1]

TIMS collisional cross section (sample type: Human plasma, ion (formula + adduct): [C41H78NO8P+HCOO] 1-): 288.2 Å²
TIMS collisional cross section (sample type: Mouse Liver, ion (formula + adduct): [C41H78NO8P+HCOO] 1-): 287.1 Å²
Compound: CCCCC/C=C\C/C=C\CCCCCCCC(=O)O[C@H](COC(=O)CCCCCCCCCCCCCC)COP(=O)([O-])OCC[N+](C)(C)C [PC 15:0_18:2]

TIMS collisional cross section (sample type: Mouse Liver, ion (formula + adduct): [C43H82NO8P-H] 1-): 279.1 Å²
Compound: CCCCC/C=C\CCCCCCCC(=O)OC[C@H](COP(=O)([O-])OCC[N+](C)(C)C)OC(=O)CCCCCCCCC/C=C\CCCCCCCC [PC 15:1@_20:1]

TIMS collisional cross section (sample type: Mouse Liver, ion (formula + adduct): [C41H76NO8P+HCOO] 1-): 286.5 Å²
Compound: CCCCC/C=C\C/C=C\CCCCCCCC(=O)O[C@H](COC(=O)CCCCCCC/C=C\CCCCC)COP(=O)([O-])OCC[N+](C)(C)C [PC 15:1_18:2]

TIMS collisional cross section (sample type: Human plasma, ion (formula + adduct): [C42H78NO8P+AcO] 1-): 295.1 Å²
Compound: CCCCC/C=C\C/C=C\C/C=C\CCCCC(=O)O[C@H](COC(=O)CCCCCCCCCCCCCCC)COP(=O)([O-])OCC[N+](C)(C)C [PC 16:0@_18:3]

TIMS collisional cross section (sample type: Human plasma, ion (formula + adduct): [C33H66NO8P-H] 1-): 260.3 Å²
Compound: CCCCCCCCCCCCCCCC(=O)OC[C@H](COP(=O)([O-])OCC[N+](C)(C)C)OC(=O)CCCCCCCC [PC 16:0_9:0@]

TIMS collisional cross section (sample type: Human plasma, ion (formula + adduct): [C40H80NO8P+HCOO] 1-): 289.35 ± 2.3 Å²
TIMS collisional cross section (sample type: Mouse Liver, ion (formula + adduct): [C40H80NO8P+HCOO] 1-): 287.7 Å²
Compound: CCCCCCCCCCCCCCCC(=O)OC[C@H](COP(=O)([O-])OCC[N+](C)(C)C)OC(=O)CCCCCCCCCCCCCCC [PC 16:0_16:0]
